Assay results: the Bradley open melting point set (2014)

Point of comparison: CCCCCCCCCCC(=O)O [undecanoic acid], melting point 28.6 °C. Against it:
- FC(F)(F)c1ccc(P(c2ccc(C(F)(F)F)cc2)c2ccc(C(F)(F)F)cc2)cc1 [tris[4-(trifluoromethyl)phenyl]phosphine] — higher, 74 °C
- NC(c1ccccc1)(c1ccccc1)c1ccccc1 [tritylamine] — higher, 102 °C
- C[C@H](CCC(=O)O)[C@H]1CC[C@H]2[C@@H]3[C@@H](O)C[C@@H]4C[C@H](O)CC[C@]4(C)[C@H]3CC[C@]12C [ursodeoxycholic acid] — higher, 203 °C
- CC(CCC(=O)O)C1CCC2C3C(O)CC4CC(O)CCC4(C)C3CCC12C (configuration not stated) [ursodiol] — higher, 203 °C
- CCCCC#N [valeronitrile] — lower, -96 °C
- CCCCC(=O)N(Cc1ccc(-c2ccccc2-c2nnn[nH]2)cc1)C(C(=O)O)C(C)C (configuration not stated) [valsartan] — higher, 116 °C
- COc1cc(C(=O)O)ccc1O [vanillic acid] — higher, 214 °C
- Nc1c2c(nc3ccccc13)CCCC2O (configuration not stated) [velnacrine] — higher, 245 °C
- COc1ccc(C=O)cc1OC [veratraldehyde] — higher, 44 °C
- COc1ccccc1OC [veratrole] — lower, 22 °C
- C=CC1(C(C)CCC)C(=O)NC(=O)NC1=O (configuration not stated) [vinylbital] — higher, 90 °C
- CC(=O)Oc1c(C)c(C)c2c(c1C)CC[C@@](C)(CCC[C@H](C)CCC[C@H](C)CCCC(C)C)O2 [vitamin e acetate] — lower, -28 °C
- NC(=O)C1c2ccccc2Oc2ccccc21 [xanthene-9-carboxamide] — higher, 245 °C
- O=c1c2ccccc2oc2ccccc12 [xanthone] — higher, 176 °C
- OC1c2ccccc2Oc2ccccc21 [xanthydrol] — higher, 124 °C
- Cc1cccc(OCC(O)CNC(C)(C)C)c1C (configuration not stated) [xibenolol] — higher, 57 °C
